The source of these data is patent US20250215029A1 (Recludix Pharma, Inc., priority 2022, published 2025).

Usually IC50 stands for the concentration at which inhibition is half-maximal.

For test [1], the target named is T1, Recombinant STAT6 protein (STAT6 (W123-T658)) (Homo sapiens, UniProt P42226).
T1 construct: Recombinant STAT6 protein (STAT6 (W123-T658))
T1 sequence (P42226 123-658): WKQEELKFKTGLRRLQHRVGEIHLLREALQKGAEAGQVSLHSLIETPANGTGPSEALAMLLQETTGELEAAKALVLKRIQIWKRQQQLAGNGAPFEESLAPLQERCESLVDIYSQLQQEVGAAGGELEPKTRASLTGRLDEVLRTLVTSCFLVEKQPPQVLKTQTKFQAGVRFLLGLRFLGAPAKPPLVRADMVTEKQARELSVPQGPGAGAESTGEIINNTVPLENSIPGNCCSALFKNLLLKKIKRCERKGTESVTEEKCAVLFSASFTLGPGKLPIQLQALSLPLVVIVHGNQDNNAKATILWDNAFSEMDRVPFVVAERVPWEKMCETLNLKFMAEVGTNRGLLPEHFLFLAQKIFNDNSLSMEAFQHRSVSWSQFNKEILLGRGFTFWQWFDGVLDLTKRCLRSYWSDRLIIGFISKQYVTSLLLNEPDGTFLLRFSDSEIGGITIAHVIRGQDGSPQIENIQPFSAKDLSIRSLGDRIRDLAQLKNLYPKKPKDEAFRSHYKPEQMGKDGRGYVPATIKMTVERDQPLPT
In words: STAT6 Fluorescence Polarization (FP) Assay. The test is classed as binding. The note with it: STAT6 (W123-T658) 250 nM, probe 5-FAM-Ap[…]-NH2 2 nM, 45-minute incubation; read-out: STAT6 (FP assay IC50 class). The method, boiled down:
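Competitive FP binding: recombinant STAT6 (W123-T658) at 250 nM, labeled phosphotyrosine peptide at 2 nM, compounds at 1% DMSO, 45 min at RT before reading. IC50 values were obtained from nonlinear regression of mP versus log concentration.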
(In general: Polarisation of emitted light reports the rotation of a fluorescent probe.)

For test [2], the target named is T2, Recombinant STAT3 protein (STAT3 (G127-I722)) (Homo sapiens, UniProt P40763).
T2 construct: Recombinant STAT3 protein (STAT3 (G127-I722))
T2 sequence (P40763 127-722): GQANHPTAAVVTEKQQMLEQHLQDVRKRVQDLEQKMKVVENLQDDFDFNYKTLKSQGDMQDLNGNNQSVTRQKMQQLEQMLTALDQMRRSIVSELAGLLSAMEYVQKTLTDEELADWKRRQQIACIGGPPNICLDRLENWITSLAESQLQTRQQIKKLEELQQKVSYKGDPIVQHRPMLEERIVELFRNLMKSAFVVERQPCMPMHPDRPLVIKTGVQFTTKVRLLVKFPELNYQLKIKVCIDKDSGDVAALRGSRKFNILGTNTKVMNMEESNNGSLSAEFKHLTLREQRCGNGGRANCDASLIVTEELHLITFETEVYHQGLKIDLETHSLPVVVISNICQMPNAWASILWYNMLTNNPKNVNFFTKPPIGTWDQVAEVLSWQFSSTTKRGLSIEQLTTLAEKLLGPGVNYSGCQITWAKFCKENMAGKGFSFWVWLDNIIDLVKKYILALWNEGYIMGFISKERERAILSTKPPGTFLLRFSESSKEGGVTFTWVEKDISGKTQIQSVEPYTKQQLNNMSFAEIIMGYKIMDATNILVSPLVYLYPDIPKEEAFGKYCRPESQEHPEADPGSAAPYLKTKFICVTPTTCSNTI
Kind of test: STAT3 Fluorescence Polarization (FP) Assay. The test is classed as binding. Conditions: STAT3 (G127-I722) 25 nM, probe 5-FAM-GpYLPQTV-NH2 2 nM, 45-minute incubation; read-out: STAT3 (FP assay IC50 class). The method, boiled down:
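Read-out is fluorescence polarization (mP) after 45 min at room temperature, with IC50 fitted by nonlinear regression against log compound concentration. Mixture: 25 nM STAT3 (G127-I722), 2 nM 5-FAM-GpYLPQTV-NH2 phosphopeptide, 10 mM HEPES pH 7.4 buffer, 1% DMSO.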

A value given as a limit tells only on which side of the number the result lay.

Regarding `N#Cc1cccc(C2CN(C(=O)[C@@H]3CC[C@@H]4CCC[C@H](NC(=O)c5cc6cc(C(F)P(=O)(O)O)ccc6s5)C(=O)N43)C2)n1` (stereo partly shown) [Compound 526], the results for the IC50 in test [1] and in test [2] were 3 to 30 µM and below 0.1 µM, respectively.

In the case of `O=C(N[C@H]1CCCC[C@H]2CC[C@@H](C(=O)N[C@@H]3CCN(C(=O)OC4CC4)C3)N2C1=O)c1cc2cc(C(F)P(=O)(O)O)ccc2s1` (stereo partly drawn) [Compound 527, ((2-(((3S,6S,10aS)-3-(((R)-1-(cyclopropoxycarbonyl)pyrrolidin-3-yl)carbamoyl)-5-oxodecahydropyrrolo[1,2-a]azocin-6-yl)carbamoyl)benzo[b]thiophen-5-yl)fluoromethyl)phosphonic acid], the results for the IC50 in test [1] and in test [2] were 0.3 to 3 µM and 1 to 10 µM, respectively.

For `O=C(N[C@H]1CCCC[C@H]2CC[C@@H](C(=O)NC3CN(C(=O)OC4CC4)C3)N2C1=O)c1cc2cc(C(F)P(=O)(O)O)ccc2s1` (stereo partly drawn) [Compound 528, ((2-(((3S,6S,10aS)-3-((1-(cyclopropoxycarbonyl)azetidin-3-yl)carbamoyl)-5-oxodecahydropyrrolo[1,2-a]azocin-6-yl)carbamoyl)benzo[b]thiophen-5-yl)fluoromethyl)phosphonic acid], the IC50 in test [1] is 0.3 to 3 µM; in test [2] it was 1 to 10 µM.

For `CN(C)C(=O)N1CC[C@@H](NC(=O)[C@@H]2CC[C@@H]3CCCC[C@H](NC(=O)c4cc5cc(C(F)P(=O)(O)O)ccc5s4)C(=O)N32)C1` (stereo partly drawn) [Compound 529, ((2-(((3S,6S,10aS)-3-(((R)-1-(dimethylcarbamoyl)pyrrolidin-3-yl)carbamoyl)-5-oxodecahydropyrrolo[1,2-a]azocin-6-yl)carbamoyl)benzo[b]thiophen-5-yl)fluoromethyl)phosphonic acid], the IC50 is 3 to 30 µM in test [1] and 0.1 to 1 µM in test [2].

Consider `CNC(=O)N1CC[C@@H](NC(=O)[C@@H]2CC[C@@H]3CCCC[C@H](NC(=O)c4cc5cc(C(F)P(=O)(O)O)ccc5s4)C(=O)N32)C1` (stereo partly drawn) [Compound 530, (fluoro(2-(((3S,6S,10aS)-3-(((R)-1-(methylcarbamoyl)pyrrolidin-3-yl)carbamoyl)-5-oxodecahydropyrrolo[1,2-a]azocin-6-yl)carbamoyl)benzo[b]thiophen-5-yl)methyl)phosphonic acid], for which the IC50 in test [1] was in the range of 3 to 30 µM; in test [2] it was 0.1 to 1 µM.

Consider `O=C(N[C@H]1CCC[C@H]2CC[C@@H](C(=O)N[C@@H]3CC[C@H](O)C3)N2C1=O)c1cc2cc(C(F)P(=O)(O)O)ccc2s1` (stereo partly drawn) [Compound 531, (fluoro(2-(((3S,6S,9aS)-3-(((1R,3S)-3-hydroxycyclopentyl)carbamoyl)-5-oxooctahydro-1H-pyrrolo[1,2-a]azepin-6-yl)carbamoyl)benzo[b]thiophen-5-yl)methyl)phosphonic acid], for which the IC50 in test [1] lay within 3 to 30 µM; in test [2], 1 to 10 µM.

`NC(=O)N1CC[C@@H](NC(=O)[C@@H]2CC[C@@H]3CCCC[C@H](NC(=O)c4cc5cc(C(F)P(=O)(O)O)ccc5s4)C(=O)N32)C1` (stereo partly drawn) [Compound 532, ((2-(((3S,6S,10aS)-3-(((R)-1-carbamoylpyrrolidin-3-yl)carbamoyl)-5-oxodecahydropyrrolo[1,2-a]azocin-6-yl)carbamoyl)benzo[b]thiophen-5-yl)fluoromethyl)phosphonic acid]: the IC50 in test [1] was 3 to 30 µM; in test [2], below 0.1 µM.

Take `Cn1ccc(N2CC[C@@H](NC(=O)[C@@H]3CC[C@@H]4CCCC[C@H](NC(=O)c5cc6cc(C(F)P(=O)(O)O)ccc6s5)C(=O)N43)C2)n1` (stereo partly drawn) [Compound 533, (fluoro(2-(((3S,6S,10aS)-3-(((R)-1-(1-methyl-1H-pyrazol-3-yl)pyrrolidin-3-yl)carbamoyl)-5-oxodecahydropyrrolo[1,2-a]azocin-6-yl)carbamoyl)benzo[b]thiophen-5-yl)methyl)phosphonic acid]: the values for the IC50 in test [1] and in test [2] were 0.3 to 3 µM and 1 to 10 µM, respectively.

As to `Cc1cccnc1N1CC[C@@H](NC(=O)[C@@H]2CC[C@@H]3CCCC[C@H](NC(=O)c4cc5cc(C(F)P(=O)(O)O)ccc5s4)C(=O)N32)C1` (stereo partly drawn) [Compound 534, (fluoro(2-(((3S,6S,10aS)-3-(((R)-1-(3-methylpyridin-2-yl)pyrrolidin-3-yl)carbamoyl)-5-oxodecahydropyrrolo[1,2-a]azocin-6-yl)carbamoyl)benzo[b]thiophen-5-yl)methyl)phosphonic acid], the IC50 in test [1] was in the range of 3 to 30 µM; in test [2] it was 0.1 to 1 µM.

For `CO[C@H]1CC[C@@H](NC(=O)[C@@H]2CC[C@@H]3CCC[C@H](NC(=O)c4cc5cc(C(F)P(=O)(O)O)ccc5s4)C(=O)N32)C1` (stereo partly drawn) [Compound 535, (fluoro(2-(((3S,6S,9aS)-3-(((1R,3S)-3-methoxycyclopentyl)carbamoyl)-5-oxooctahydro-1H-pyrrolo[1,2-a]azepin-6-yl)carbamoyl)benzo[b]thiophen-5-yl)methyl)phosphonic acid], the IC50 lay in the range of 3 to 30 µM in test [1] and 1 to 10 µM in test [2].

`CO[C@@H]1CC[C@@H](NC(=O)[C@@H]2CC[C@@H]3CCC[C@H](NC(=O)c4cc5cc(C(F)P(=O)(O)O)ccc5s4)C(=O)N32)C1` (stereo partly drawn) [Compound 536, (fluoro(2-(((3S,6S,9aS)-3-(((1R,3R)-3-methoxycyclopentyl)carbamoyl)-5-oxooctahydro-1H-pyrrolo[1,2-a]azepin-6-yl)carbamoyl)benzo[b]thiophen-5-yl)methyl)phosphonic acid]: the figures for the IC50 in test [1] and in test [2] were 3 to 30 µM and 1 to 10 µM, respectively.

On to `O=C(N[C@H]1CCC[C@H]2CC[C@@H](C(=O)N[C@@H]3CC[C@@H](O)C3)N2C1=O)c1cc2cc(C(F)P(=O)(O)O)ccc2s1` (stereo partly drawn) [Compound 537, (fluoro(2-(((3S,6S,9aS)-3-(((1R,3R)-3-hydroxycyclopentyl)carbamoyl)-5-oxooctahydro-1H-pyrrolo[1,2-a]azepin-6-yl)carbamoyl)benzo[b]thiophen-5-yl)methyl)phosphonic acid], for which the values for the IC50 in test [1] and in test [2] were 3 to 30 µM and 1 to 10 µM, respectively.

In the case of `O=C(N[C@H]1CCC[C@H]2CC[C@@H](C(=O)N3CC(c4nccnc4F)C3)N2C1=O)c1cc2cc(CP(=O)(O)O)ccc2s1` [Compound 538, ((2-(((3S,6S,9aS)-3-(3-(3-fluoropyrazin-2-yl)azetidine-1-carbonyl)-5-oxooctahydro-1H-pyrrolo[1,2-a]azepin-6-yl)carbamoyl)benzo[b]thiophen-5-yl)methyl)phosphonic acid], the IC50 was in the range of 3 to 30 µM in test [1] and 1 to 10 µM in test [2].

Take `O=C(N[C@H]1CCC[C@H]2CC[C@@H](C(=O)N3CC(c4cnccc4O)C3)N2C1=O)c1cc2cc(CP(=O)(O)O)ccc2s1` [Compound 539, ((2-(((3S,6S,9aS)-3-(3-(4-hydroxypyridin-3-yl)azetidine-1-carbonyl)-5-oxooctahydro-1H-pyrrolo[1,2-a]azepin-6-yl)carbamoyl)benzo[b]thiophen-5-yl)methyl)phosphonic acid]: the IC50 in test [1] was 3 to 30 µM; in test [2] it was below 0.1 µM.

Consider `O=C(N[C@H]1CCC[C@H]2CC[C@@H](C(=O)N3CC(c4cnccc4O)C3)N2C1=O)c1cc2cc(C(F)P(=O)(O)O)ccc2s1` (stereo partly drawn) [Compound 540, (fluoro(2-(((3S,6S,9aS)-3-(3-(4-hydroxypyridin-3-yl)azetidine-1-carbonyl)-5-oxooctahydro-1H-pyrrolo[1,2-a]azepin-6-yl)carbamoyl)benzo[b]thiophen-5-yl)methyl)phosphonic acid], for which the IC50 in test [1] is 0.3 to 3 µM; in test [2], below 0.1 µM.

Regarding `O=C(N[C@H]1CCC[C@H]2CC[C@@H](C(=O)N3CC(c4cc(F)ccn4)C3)N2C1=O)c1cc2cc(CP(=O)(O)O)ccc2s1` [Compound 541, ((2-(((3S,6S,9aS)-3-(3-(4-fluoropyridin-2-yl)azetidine-1-carbonyl)-5-oxooctahydro-1H-pyrrolo[1,2-a]azepin-6-yl)carbamoyl)benzo[b]thiophen-5-yl)methyl)phosphonic acid], the IC50 in test [1] was in the range of 3 to 30 µM; in test [2], 1 to 10 µM.

Consider `Cn1nccc1N1CC[C@@H](NC(=O)[C@@H]2CC[C@@H]3CCCC[C@H](NC(=O)c4cc5cc(C(F)P(=O)(O)O)ccc5s4)C(=O)N32)C1` (stereo partly drawn) [Compound 542, (fluoro(2-(((3S,6S,10aS)-3-(((R)-1-(1-methyl-1H-pyrazol-5-yl)pyrrolidin-3-yl)carbamoyl)-5-oxodecahydropyrrolo[1,2-a]azocin-6-yl)carbamoyl)benzo[b]thiophen-5-yl)methyl)phosphonic acid], for which the values for the IC50 in test [1] and in test [2] were 3 to 30 µM and 1 to 10 µM, respectively.
